In EP4230620A1, “SUBSTITUTED N-AMINO-N-BENZOIC ACID URACILS, THEIR SALTS AND USE OF SAID COMPOUNDS AS HERBICIDAL AGENTS” (Bayer Aktiengesellschaft, priority 2022, dated 2023):

Legend:
Type in all cases: in vivo
Amaranthus retroflexus = assay: Post-emergence herbicidal action in greenhouse against AMARE; conditions: post-emergence spray, 600 l/ha water, visual rating after ca. 3 weeks vs untreated controls, 100% = plants dead, 0% = like control plants
Text: (§1) Biologische Beispiele: • Die folgenden Abkürzungen werden für die in den folgenden Tabellen aufgeführten Kultur- und Schadpflanzen verwendet: ABUTH: Abutilon theophrasti ALOMY: Alopecurus myosuroides AMARE: Amaranthus retroflexus BRSNS: Brassica napus DIGSA: Digitaria sanguinalis ECHCG: Echinochloa crus-galli GLXMA: Glycine max KCHSC: Kochia scoparia LOLRI: Lolium rigidum MATIN: Matricaria inodora ORYZA: Oryza sativa PHPBU: Pharbitis purpurea POLCO: Polygonum convolvulus SETVI: Setaria viridis VERPE: Veronica persica VIOTR: Viola tricolor TRZAS: Triticum aestivum ZEAMX: Zea mays • A. Herbizide Wirkung im Nachauflauf
(§2) Samen von mono- bzw. dikotylen Unkrautpflanzen wurden in Kunststoff- oder Holzfasertöpfen in sandigem Lehmboden ausgelegt, mit Erde abgedeckt und im Gewächshaus unter kontrollierten Wachstumsbedingungen angezogen. 2 bis 3 Wochen nach der Aussaat wurden die Versuchspflanzen im Einblattstadium behandelt. Die in Form von benetzbaren Pulvern (WP) oder als Emulsionskonzentrate (EC) formulierten erfindungsgemäßen Verbindungen wurden dann als wässrige Suspension bzw. Emulsion unter Zusatz von 0,5% Additiv mit einer Wasseraufwandmenge von umgerechnet 600 l/ha auf die grünen Pflanzenteile gesprüht. Nach ca. 3 Wochen Standzeit der Versuchspflanzen im Gewächshaus, unter optimalen Wachstumsbedingungen, wurde die Wirkung der Präparate visuell im Vergleich zu unbehandelten Kontrollen bonitiert. Beispielsweise bedeutet 100% Wirkung = Pflanzen sind abgestorben, 0% Wirkung = wie Kontrollpflanzen.
(§3) In den nachstehenden Tabellen A1 bis A11 sind die Wirkungen ausgewählter Verbindungen der allgemeinen Formel (I) gemäß der Tabelle 1 auf verschiedene Schadpflanzen und einer Aufwandmenge entsprechend 20 g/ha und niedriger, die gemäß zuvor genannter Versuchsvorschrift erhalten wurden, dargestellt. Tabelle A1a: Nachauflaufwirkung bei 1,25 g/ha gegen ABUTH in %

Matricaria inodora = assay: Post-emergence herbicidal action in greenhouse against MATIN; conditions: visual rating after ca. 3 weeks
Text: as §1, §2, §3

Digitaria sanguinalis = assay: Post-emergence herbicidal action in greenhouse against DIGSA; conditions: visual rating after ca. 3 weeks
Text: as §1, §2, §3

Alopecurus myosuroides = assay: Post-emergence herbicidal action in greenhouse against ALOMY; conditions: 20 g/ha; post-emergence spray, 600 l/ha water; visual rating after ca. 3 weeks vs untreated controls; 100% = plants dead, 0% = like control plants
Text: as §1, §2, §3

Triticum aestivum = assay: Post-emergence action on crop plants in greenhouse, TRZAS; conditions: crop plant, visual rating after ca. 3 weeks, 100% = plants dead, 0% = like control plants
Text: as §1
as §2, with “Kulturpflanzen” for “Unkrautpflanzen”
as §3, with “B1” for “A1”, “B4” for “A11”, “Kulturpflanzen” for “Schadpflanzen”, “B1a:” for “A1a:”, “ZEAMX” for “ABUTH”

Polygonum convolvulus = assay: Post-emergence herbicidal action in greenhouse against POLCO; conditions: visual rating after ca. 3 weeks
Text: as §1, §2, §3

Veronica persica = assay: Post-emergence herbicidal action in greenhouse against VERPE; conditions: visual rating after ca. 3 weeks
Text: as §1, §2, §3

Setaria viridis = assay: Post-emergence herbicidal action in greenhouse against SETVI; conditions: visual rating after ca. 3 weeks
Text: as §1, §2, §3

Oryza sativa = assay: Post-emergence action on crop plants in greenhouse, ORYZA; conditions: crop plant, visual rating after ca. 3 weeks, 100% = plants dead, 0% = like control plants
Text: as §1
as §2, with “Kulturpflanzen” for “Unkrautpflanzen”
as §3, with “B1” for “A1”, “B4” for “A11”, “Kulturpflanzen” for “Schadpflanzen”, “B1a:” for “A1a:”, “ZEAMX” for “ABUTH”

Abutilon theophrasti = assay: Post-emergence herbicidal action in greenhouse against ABUTH; conditions: post-emergence spray, 600 l/ha water, visual rating after ca. 3 weeks vs untreated controls, 100% = plants dead, 0% = like control plants
Text: as §1, §2, §3

Viola tricolor = assay: Post-emergence herbicidal action in greenhouse against VIOTR; conditions: visual rating after ca. 3 weeks
Text: as §1, §2, §3

Pharbitis purpurea = assay: Post-emergence herbicidal action in greenhouse against PHBPU; conditions: visual rating after ca. 3 weeks
Text: as §1, §2, §3

COCCOC(=O)C(C)(C)OC(=O)c1cc(-n2c(=O)cc(C(F)(F)F)n(N)c2=O)ccc1Cl [I.2-1]
Nachauflaufwirkung gegen AMARE (Amaranthus retroflexus; 1,25 g/ha): 100%
Nachauflaufwirkung gegen AMARE (Amaranthus retroflexus; 5 g/ha): 100%
Nachauflaufwirkung gegen AMARE (Amaranthus retroflexus; 20 g/ha): 100%
Nachauflaufwirkung gegen MATIN (Matricaria inodora; 5 g/ha): 90%
Nachauflaufwirkung gegen MATIN (Matricaria inodora; 20 g/ha): 100%
Nachauflaufwirkung gegen DIGSA (Digitaria sanguinalis; 20 g/ha): 100%
Nachauflaufwirkung gegen ALOMY (Alopecurus myosuroides): 80%
Nachauflaufwirkung gegen TRZAS (Triticum aestivum; 1,25 g/ha): 0%
Nachauflaufwirkung gegen TRZAS (Triticum aestivum; 5 g/ha): 0%
Nachauflaufwirkung gegen TRZAS (Triticum aestivum; 20 g/ha): 10%
Nachauflaufwirkung gegen POLCO (Polygonum convolvulus; 20 g/ha): 100%
Nachauflaufwirkung gegen VERPE (Veronica persica; 1,25 g/ha): 80%
Nachauflaufwirkung gegen VERPE (Veronica persica; 5 g/ha): 100%
Nachauflaufwirkung gegen VERPE (Veronica persica; 20 g/ha): 100%
Nachauflaufwirkung gegen SETVI (Setaria viridis; 1,25 g/ha): 100%
Nachauflaufwirkung gegen SETVI (Setaria viridis; 5 g/ha): 100%
Nachauflaufwirkung gegen SETVI (Setaria viridis; 20 g/ha): 100%
Nachauflaufwirkung gegen ORYZA (Oryza sativa; 1,25 g/ha): 0%
Nachauflaufwirkung gegen ORYZA (Oryza sativa; 5 g/ha): 0%
Nachauflaufwirkung gegen ABUTH (Abutilon theophrasti; 1,25 g/ha): 90%
Nachauflaufwirkung gegen ABUTH (Abutilon theophrasti; 5 g/ha): 100%
Nachauflaufwirkung gegen ABUTH (Abutilon theophrasti; 20 g/ha): 100%
Nachauflaufwirkung gegen VIOTR (Viola tricolor; 1,25 g/ha): 90%
Nachauflaufwirkung gegen VIOTR (Viola tricolor; 5 g/ha): 100%
Nachauflaufwirkung gegen VIOTR (Viola tricolor; 20 g/ha): 100%
Nachauflaufwirkung gegen PHBPU (Pharbitis purpurea; 1,25 g/ha): 80%
Nachauflaufwirkung gegen PHBPU (Pharbitis purpurea; 5 g/ha): 90%
Nachauflaufwirkung gegen PHBPU (Pharbitis purpurea; 20 g/ha): 100%

C=CCOC(=O)C(C)(C)OC(=O)c1cc(-n2c(=O)cc(C(F)(F)F)n(N)c2=O)c(F)cc1Cl [I.1-471, 1-(Allyloxy)-2-methyl-1-oxopropan-2-yl-5-[3-amino-2,6-dioxo-4-(trifluormethyl)-3,6-dihydropyrimidin-1(2H)-yl]-2-chlor-4-fluorbenzoat]
Nachauflaufwirkung gegen AMARE (Amaranthus retroflexus; 1,25 g/ha): 100%
Nachauflaufwirkung gegen AMARE (Amaranthus retroflexus; 5 g/ha): 100%
Nachauflaufwirkung gegen AMARE (Amaranthus retroflexus; 20 g/ha): 100%
Nachauflaufwirkung gegen MATIN (Matricaria inodora; 5 g/ha): 100%
Nachauflaufwirkung gegen MATIN (Matricaria inodora; 20 g/ha): 100%
Nachauflaufwirkung gegen DIGSA (Digitaria sanguinalis; 5 g/ha): 100%
Nachauflaufwirkung gegen DIGSA (Digitaria sanguinalis; 20 g/ha): 100%
Nachauflaufwirkung gegen ALOMY (Alopecurus myosuroides): 100%
Nachauflaufwirkung gegen TRZAS (Triticum aestivum; 1,25 g/ha): 0%
Nachauflaufwirkung gegen TRZAS (Triticum aestivum; 5 g/ha): 20%
Nachauflaufwirkung gegen POLCO (Polygonum convolvulus; 5 g/ha): 100%
Nachauflaufwirkung gegen POLCO (Polygonum convolvulus; 20 g/ha): 100%
Nachauflaufwirkung gegen VERPE (Veronica persica; 1,25 g/ha): 100%
Nachauflaufwirkung gegen VERPE (Veronica persica; 5 g/ha): 100%
Nachauflaufwirkung gegen VERPE (Veronica persica; 20 g/ha): 100%
Nachauflaufwirkung gegen SETVI (Setaria viridis; 1,25 g/ha): 100%
Nachauflaufwirkung gegen SETVI (Setaria viridis; 5 g/ha): 100%
Nachauflaufwirkung gegen SETVI (Setaria viridis; 20 g/ha): 100%
Nachauflaufwirkung gegen ORYZA (Oryza sativa; 1,25 g/ha): 0%
Nachauflaufwirkung gegen ABUTH (Abutilon theophrasti; 1,25 g/ha): 100%
Nachauflaufwirkung gegen ABUTH (Abutilon theophrasti; 5 g/ha): 100%
Nachauflaufwirkung gegen ABUTH (Abutilon theophrasti; 20 g/ha): 100%
Nachauflaufwirkung gegen VIOTR (Viola tricolor; 1,25 g/ha): 90%
Nachauflaufwirkung gegen VIOTR (Viola tricolor; 5 g/ha): 100%
Nachauflaufwirkung gegen VIOTR (Viola tricolor; 20 g/ha): 100%
Nachauflaufwirkung gegen PHBPU (Pharbitis purpurea; 1,25 g/ha): 100%
Nachauflaufwirkung gegen PHBPU (Pharbitis purpurea; 5 g/ha): 100%
Nachauflaufwirkung gegen PHBPU (Pharbitis purpurea; 20 g/ha): 100%

CC(C)=NOC(=O)C(C)(C)OC(=O)c1cc(-n2c(=O)cc(C(F)(F)F)n(N)c2=O)ccc1Cl [I.2-491]
Nachauflaufwirkung gegen AMARE (Amaranthus retroflexus; 1,25 g/ha): 80%
Nachauflaufwirkung gegen AMARE (Amaranthus retroflexus; 5 g/ha): 100%
Nachauflaufwirkung gegen AMARE (Amaranthus retroflexus; 20 g/ha): 100%
Nachauflaufwirkung gegen MATIN (Matricaria inodora; 5 g/ha): 80%
Nachauflaufwirkung gegen MATIN (Matricaria inodora; 20 g/ha): 100%
Nachauflaufwirkung gegen DIGSA (Digitaria sanguinalis; 5 g/ha): 100%
Nachauflaufwirkung gegen DIGSA (Digitaria sanguinalis; 20 g/ha): 100%
Nachauflaufwirkung gegen TRZAS (Triticum aestivum; 1,25 g/ha): 0%
Nachauflaufwirkung gegen TRZAS (Triticum aestivum; 5 g/ha): 0%
Nachauflaufwirkung gegen TRZAS (Triticum aestivum; 20 g/ha): 20%
Nachauflaufwirkung gegen POLCO (Polygonum convolvulus; 20 g/ha): 100%
Nachauflaufwirkung gegen VERPE (Veronica persica; 5 g/ha): 100%
Nachauflaufwirkung gegen VERPE (Veronica persica; 20 g/ha): 100%
Nachauflaufwirkung gegen SETVI (Setaria viridis; 1,25 g/ha): 90%
Nachauflaufwirkung gegen SETVI (Setaria viridis; 5 g/ha): 100%
Nachauflaufwirkung gegen SETVI (Setaria viridis; 20 g/ha): 100%
Nachauflaufwirkung gegen ORYZA (Oryza sativa; 1,25 g/ha): 0%
Nachauflaufwirkung gegen ORYZA (Oryza sativa; 5 g/ha): 0%
Nachauflaufwirkung gegen ABUTH (Abutilon theophrasti; 5 g/ha): 100%
Nachauflaufwirkung gegen ABUTH (Abutilon theophrasti; 20 g/ha): 100%
Nachauflaufwirkung gegen VIOTR (Viola tricolor; 1,25 g/ha): 80%
Nachauflaufwirkung gegen VIOTR (Viola tricolor; 5 g/ha): 100%
Nachauflaufwirkung gegen VIOTR (Viola tricolor; 20 g/ha): 100%
Nachauflaufwirkung gegen PHBPU (Pharbitis purpurea; 1,25 g/ha): 90%
Nachauflaufwirkung gegen PHBPU (Pharbitis purpurea; 5 g/ha): 100%
Nachauflaufwirkung gegen PHBPU (Pharbitis purpurea; 20 g/ha): 100%
